Laboratory results: ChEMBL document CHEMBL1255208, “A class of novel conjugates of substituted purine and Gly-AA-OBzl: synthesis and evaluation of orally analgesic activity” (2010)

Legend:
Format in all cases: functional
Mus musculus [1] = assay: Analgesic activity in mouse assessed as pain threshold variation at 25 umol/kg, po after 90 mins (RVb = 0.2 +/- 3.75 %)
Mus musculus [2] = assay: Analgesic activity in mouse assessed as pain threshold variation at 30 umol/kg, po after 90 mins (RVb = 0.17 +/- 0.14 %)
Mus musculus [3] = assay: Analgesic activity in mouse assessed as pain threshold variation at 25 umol/kg, po after 180 mins (RVb = -5.10 %)
Mus musculus [4] = assay: Analgesic activity in mouse assessed as pain threshold variation at 25 umol/kg, po after 120 mins (RVb = 0.69 +/- 1.98 %)
Mus musculus [5] = assay: Analgesic activity in mouse assessed as pain threshold variation at 25 umol/kg, po after 60 mins (RVb = -6.5 +/- 1.79 %)
Mus musculus [6] = assay: Analgesic activity in mouse assessed as pain threshold variation at 30 umol/kg, po after 60 mins (RVb = 0.15 +/- 0.16 %)
Mus musculus [7] = assay: Analgesic activity in mouse assessed as pain threshold variation at 25 umol/kg, po after 150 mins (RVb = 3.98 +/- 4.03 %)
Mus musculus [8] = assay: Analgesic activity in mouse assessed as pain threshold variation at 30 umol/kg, po after 30 mins (RVb = 0.13 +/- 0.14 %)
Mus musculus [9] = assay: Analgesic activity in mouse assessed as pain threshold variation at 30 umol/kg, po after 150 mins (RVb = 0.16 +/- 0.13 %)
Mus musculus [10] = assay: Analgesic activity in mouse assessed as pain threshold variation at 25 umol/kg, po after 30 mins (RVb = -1 +/- 2.8 %)
Mus musculus [11] = assay: Analgesic activity in mouse assessed as pain threshold variation at 30 umol/kg, po after 180 mins (RVb = 0.15 +/- 0.12 %)
Mus musculus [12] = assay: Analgesic activity in mouse assessed as pain threshold variation at 30 umol/kg, po after 120 mins (RVb = 0.18 +/- 0.15 %)

Clc1nc(NC2CC2)c2ncn(C3CCCCO3)c2n1 (stereo not drawn)
Activity (Mus musculus [1]): 11.93%
Activity (Mus musculus [2]): 16.96%
Activity (Mus musculus [3]): 5.92%
Activity (Mus musculus [4]): 12.64%
Activity (Mus musculus [5]): 20.63%
Activity (Mus musculus [6]): 25.61%
Activity (Mus musculus [7]): 5.72%
Activity (Mus musculus [8]): 15.2%
Activity (Mus musculus [9]): 10.78%
Activity (Mus musculus [10]): 10.27%
Activity (Mus musculus [11]): 9.95%
Activity (Mus musculus [12]): 15.66%

O=C(CN(c1nc(Cl)nc2c1ncn2C1CCCCO1)C1CC1)N[C@@H](CC(=O)OCc1ccccc1)C(=O)OCc1ccccc1 (stereo partly drawn)
Activity (Mus musculus [1]): 25.07%
Activity (Mus musculus [3]): 0.03%
Activity (Mus musculus [4]): 7.82%
Activity (Mus musculus [5]): 38.15%
Activity (Mus musculus [7]): 0.06%
Activity (Mus musculus [10]): 31.81%

O=C(CN(c1nc(Cl)nc2c1ncn2C1CCCCO1)C1CC1)N[C@@H](CCC(=O)OCc1ccccc1)C(=O)OCc1ccccc1 (stereo partly drawn)
Activity (Mus musculus [1]): 25.2%
Activity (Mus musculus [3]): 10.93%
Activity (Mus musculus [4]): 20.71%
Activity (Mus musculus [5]): 34.74%
Activity (Mus musculus [7]): 14.14%
Activity (Mus musculus [10]): 32.61%

CC(C)(C)OC(=O)NCCCC[C@H](NC(=O)CN(c1nc(Cl)nc2c1ncn2C1CCCCO1)C1CC1)C(=O)OCc1ccccc1 (stereo partly drawn)
Activity (Mus musculus [1]): 32.85%
Activity (Mus musculus [3]): 10.06%
Activity (Mus musculus [4]): 28.39%
Activity (Mus musculus [5]): 32.66%
Activity (Mus musculus [7]): 17.2%
Activity (Mus musculus [10]): 18.33%

O=C(CN(c1nc(Cl)nc2c1ncn2C1CCCCO1)C1CC1)N[C@@H](Cc1ccccc1)C(=O)OCc1ccccc1 (stereo partly drawn)
Activity (Mus musculus [1]): 37.73%
Activity (Mus musculus [3]): 1.79%
Activity (Mus musculus [4]): 26.29%
Activity (Mus musculus [5]): 45.54%
Activity (Mus musculus [7]): 3.49%
Activity (Mus musculus [10]): 39.2%

O=C(CN(c1nc(Cl)nc2c1ncn2C1CCCCO1)C1CC1)N[C@@H](Cc1c[nH]c2ccccc12)C(=O)OCc1ccccc1 (stereo partly drawn)
Activity (Mus musculus [1]): 38.93%
Activity (Mus musculus [3]): 5.15%
Activity (Mus musculus [4]): 22.58%
Activity (Mus musculus [5]): 51.9%
Activity (Mus musculus [7]): 11.45%
Activity (Mus musculus [10]): 43.53%

O=C(CN(c1nc(Cl)nc2c1ncn2C1CCCCO1)C1CC1)N[C@@H](Cc1ccc(O)cc1)C(=O)OCc1ccccc1 (stereo partly drawn)
Activity (Mus musculus [1]): 36.45%
Activity (Mus musculus [3]): 12.02%
Activity (Mus musculus [4]): 17.44%
Activity (Mus musculus [5]): 35.82%
Activity (Mus musculus [7]): 8.71%
Activity (Mus musculus [10]): 20.53%

Clc1nc(Cl)c2nc[nH]c2n1
Activity (Mus musculus [2]): 14.02%
Activity (Mus musculus [6]): 21.62%
Activity (Mus musculus [8]): 12.22%
Activity (Mus musculus [9]): 8.77%
Activity (Mus musculus [11]): 7.99%
Activity (Mus musculus [12]): 12.97%

Clc1nc(Cl)c2ncn(C3CCCCO3)c2n1 (stereo not drawn)
Activity (Mus musculus [2]): 15.01%
Activity (Mus musculus [6]): 23.99%
Activity (Mus musculus [8]): 14.3%
Activity (Mus musculus [9]): 9.89%
Activity (Mus musculus [11]): 8.03%
Activity (Mus musculus [12]): 14.13%

CSCC[C@H](NC(=O)CN(c1nc(Cl)nc2c1ncn2C1CCCCO1)C1CC1)C(=O)OCc1ccccc1 (stereo partly drawn)
Activity (Mus musculus [1]): 42.7%
Activity (Mus musculus [3]): 12.89%
Activity (Mus musculus [4]): 28.66%
Activity (Mus musculus [5]): 40.97%
Activity (Mus musculus [7]): 17.47%
Activity (Mus musculus [10]): 30.04%

O=C(OCc1ccccc1)[C@@H]1CCCN1C(=O)CN(c1nc(Cl)nc2c1ncn2C1CCCCO1)C1CC1 (stereo partly drawn)
Activity (Mus musculus [1]): 23.31%
Activity (Mus musculus [3]): 6.63%
Activity (Mus musculus [4]): 17.49%
Activity (Mus musculus [5]): 36.73%
Activity (Mus musculus [7]): 7.85%
Activity (Mus musculus [10]): 32.25%

O=C(CN(c1nc(Cl)nc2c1ncn2C1CCCCO1)C1CC1)N[C@@H](CO)C(=O)OCc1ccccc1 (stereo partly drawn)
Activity (Mus musculus [1]): 32.17%
Activity (Mus musculus [3]): 12.85%
Activity (Mus musculus [4]): 29.2%
Activity (Mus musculus [5]): 46.71%
Activity (Mus musculus [7]): 18.32%
Activity (Mus musculus [10]): 27.77%
